These results are taken from ChEMBL document CHEMBL3098039, “Urea/oxalamide tethered β-lactam-7-chloroquinoline conjugates: synthesis and in vitro antimalarial evaluation” (Eur J Med Chem, 2014).

Molecules are shown by their SMILES.

Usually IC50 stands for the concentration at which inhibition is half-maximal.

The first data set deals with Plasmodium falciparum. As to the kind of experiment: Antiplasmodial activity against chloroquine-resistant ring stage Plasmodium falciparum W2 assessed as parasitemia after 48 hrs by flow cytometry. It is filed as functional, organism-based. As to conditions: W2, 48 h. (Flow cytometry measures light scatter and fluorescence of single cells or particles in a stream.)
With `Cc1ccc(N2C(=O)[C@@H](NC(=O)C(=O)NCCCNc3ccnc4cc(Cl)ccc34)[C@H]2/C=C/c2ccccc2)cc1` (racemic), the IC50 turned out to be 88.7 nM. The same measure, in the same setting: with `Cc1ccc(N2C(=O)[C@H](NC(=O)NCCCCNc3ccnc4cc(Cl)ccc34)[C@@H]2/C=C/c2ccccc2)cc1` (mixture of isomers) the figure was 149 nM; with `CCOC(=O)C(=O)N[C@@H]1C(=O)N(c2ccc(Cl)cc2)[C@@H]1/C=C/c1ccccc1` (relative stereo), > 1000 nM. As to `O=C(NCCCCCCNc1ccnc2cc(Cl)ccc12)C(=O)N[C@@H]1C(=O)N(C2CCCCC2)[C@@H]1/C=C/c1ccccc1` (racemic), the IC50 came out at 35 nM. On to `Cc1ccc(N2C(=O)[C@H](NC(=O)NCCNc3ccnc4cc(Cl)ccc34)[C@@H]2/C=C/c2ccccc2)cc1` (mixture of isomers), for which the IC50 was 53.1 nM. As to `O=C(NCCCCNc1ccnc2cc(Cl)ccc12)C(=O)N[C@@H]1C(=O)N(C2CCCCC2)[C@@H]1/C=C/c1ccccc1` (mixture of isomers), the half-inhibitory concentration (IC50) amounted to 68.6 nM.

On to `Cc1ccc(N2C(=O)[C@H](NC(=O)NCCCCCCNc3ccnc4cc(Cl)ccc34)[C@@H]2/C=C/c2ccccc2)cc1` (racemic), for which the IC50 turned out to be 42.4 nM. Still for that read-out and setting: the same measure for `O=C(NCCCNc1ccnc2cc(Cl)ccc12)C(=O)N[C@@H]1C(=O)N(C2CCCCC2)[C@@H]1/C=C/c1ccccc1` (mixture of isomers): 121 nM; for `CCOC(=O)C(=O)N[C@@H]1C(=O)N(C2CCCCC2)[C@@H]1/C=C/c1ccccc1` (racemic): > 1000 nM; for `O=C(NCCCCCCNc1ccnc2cc(Cl)ccc12)N[C@H]1C(=O)N(C2CCCCC2)[C@H]1/C=C/c1ccccc1` (racemic): 52.1 nM. On the same count and under the same terms, the same measure for `O=C(NCCCNc1ccnc2cc(Cl)ccc12)N[C@H]1C(=O)N(C2CCCCC2)[C@H]1/C=C/c1ccccc1` (relative stereo): 73 nM.

Consider `O=C(NCCCCNc1ccnc2cc(Cl)ccc12)C(=O)N[C@@H]1C(=O)N(c2ccc(Cl)cc2)[C@@H]1/C=C/c1ccccc1` (racemic), for which the IC50 amounted to 82.2 nM. The same measure, in the same setting: with `CCOC(=O)N[C@@H]1C(=O)N(c2ccc(C)cc2)[C@@H]1/C=C/c1ccccc1` (racemic) the figure was > 1000 nM. Take `CCOC(=O)C(=O)N[C@@H]1C(=O)N(c2ccc(C)cc2)[C@@H]1/C=C/c1ccccc1` (racemic): the IC50 is > 1000 nM. Still for that read-out and setting: with `O=C(NCCNc1ccnc2cc(Cl)ccc12)C(=O)N[C@@H]1C(=O)N(C2CCCCC2)[C@@H]1/C=C/c1ccccc1` (racemic) the figure was 61.3 nM; with `CCOC(=O)N[C@@H]1C(=O)N(C2CCCCC2)[C@@H]1/C=C/c1ccccc1` (racemic), > 1000 nM. Consider `CCNCc1cc(Nc2ccnc3cc(Cl)ccc23)ccc1O` [DESETHYL AMODIAQUINE], for which the IC50 worked out at 401 nM. Same read-out and setting: the same measure for `O=C(NCCCCNc1ccnc2cc(Cl)ccc12)N[C@H]1C(=O)N(C2CCCCC2)[C@H]1/C=C/c1ccccc1` (relative stereo): 193 nM; for `Cc1ccc(N2C(=O)[C@H](NC(=O)NCCCNc3ccnc4cc(Cl)ccc34)[C@@H]2/C=C/c2ccccc2)cc1` (racemic): 51 nM. Still for that read-out and setting: with `O=C(NCCNc1ccnc2cc(Cl)ccc12)N[C@H]1C(=O)N(C2CCCCC2)[C@H]1/C=C/c1ccccc1` (mixture of isomers) the figure was 157 nM. Consider `Cc1ccc(N2C(=O)[C@@H](NC(=O)C(=O)NCCNc3ccnc4cc(Cl)ccc34)[C@H]2/C=C/c2ccccc2)cc1` (racemic), for which the IC50 amounted to 44.8 nM. The same measure, in the same setting: with `O=C(NCCCCCCNc1ccnc2cc(Cl)ccc12)C(=O)N[C@@H]1C(=O)N(c2ccc(Cl)cc2)[C@@H]1/C=C/c1ccccc1` (racemic) the figure was 50.8 nM; with `C[C@@H]1CC[C@H]2[C@@H](C)C(=O)O[C@@H]3O[C@@]4(C)CC[C@@H]1[C@]32OO4` [ARTEMISININ], 10.6 nM.

System in the next data set: not listed separately
Description: Cytotoxicity against human HeLa cells assessed as cell viability at 1 uM after 24 hrs by trypan blue assay relative to untreated control. It is filed as cell-based. As to conditions: read-out: Activity.
As for `COc1cccc2c1C(=O)c1c(O)c3c(c(O)c1C2=O)C[C@@](O)(C(=O)CO)C[C@@H]3O[C@H]1C[C@H](N)[C@H](O)[C@H](C)O1` [DOXORUBICIN], the viability at 24 h, 1 µM came to 62%.

System in the next data set: not listed separately
Description: Cytotoxicity against human HeLa cells assessed as cell viability at 10 uM after 24 hrs by trypan blue assay relative to untreated control. It is filed as cell-based. As to conditions: read-out: Activity.
Regarding `O=C(NCCCCCCNc1ccnc2cc(Cl)ccc12)C(=O)N[C@@H]1C(=O)N(C2CCCCC2)[C@@H]1/C=C/c1ccccc1` (racemic), the viability at 24 h, 10 µM came to 90%. For the molecule `Cc1ccc(N2C(=O)[C@H](NC(=O)NCCCCCCNc3ccnc4cc(Cl)ccc34)[C@@H]2/C=C/c2ccccc2)cc1` (racemic), the viability at 24 h, 10 µM was 90%.
